Source: the supplement of paper PMC10307832

compound: CN1CCC(CC1)OC2=CC(=C(C=C2)NC3=NC=C4C(=N3)N(C(=O)N4C)C5CCCC5)OC [AZ3146] + COc1cccc2cc(-c3nc([C@H]4CC[C@H](C(=O)O)CC4)n4ncnc(N)c34)[nH]c12 [OSI-027] (partner 0.5 µM); test: relative viability (nuclei count vs DMSO), 5 days (fraction); higher = more cells survive; settings: first compound 0.08 µM
Method in brief: (§1)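 Five library-drug doses in √10 steps were combined with a fixed anchor-drug dose, or a single drug was given alone, by pin tool to lung cancer cell lines in 1536-well plates the day after seeding. Nuclei were stained and counted after 5 days. Relative viability is the nuclei count in treated wells over that in vehicle wells, taken as the median of duplicate plates.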

Cell Line	relative viability
LC-2-ad	0.694
HCC-827	0.84
CAL-12T	0.798
HCC-15	0.689
HOP-62	0.755
NCI-H460	0.636
LU99A	0.28
NCI-H2085	0.614
A-427	0.431
NCI-H520	0.234
NCI-H838	0.38
NCI-H1792	0.638
NCI-H596	0.683
NCI-H3122	1.07
201T	0.679
NCI-H1993	0.531
NCI-H1355	0.396
NCI-H2405	0.652
NCI-H1437	0.813
NCI-H661	0.74
COR-L 105	0.63
H3255	0.654
NCI-H2347	0.245
NCI-H1975	0.677
NCI-H1563	0.684
NCI-H1915	0.519
NCI-H2087	0.54
HCC-366	0.781
RERF-LC-KJ	0.669
EMC-BAC-2	0.343

same assay, conditions: first compound 0.253 µM

Cell Line	relative viability
NCI-H358	0.753
NCI-H322M	0.581
LC-2-ad	0.781
HCC-827	0.763
CAL-12T	0.652
HCC-15	0.667
HOP-62	0.796
NCI-H460	0.72
LU99A	0.306
NCI-H2085	0.648
A-427	0.586
NCI-H520	0.255
NCI-H838	0.432
NCI-H1792	0.735
NCI-H596	0.698
NCI-H3122	1.03
BEN	0.306

Cell Line	relative viability
201T	0.567
NCI-H1993	0.579
NCI-H1355	0.395
NCI-H2405	0.62
NCI-H1437	0.876
NCI-H661	0.72
COR-L 105	0.653
H3255	0.483
NCI-H2347	0.452
NCI-H1975	0.747
NCI-H1563	0.731
NCI-H1915	0.637
NCI-H2087	0.656
HCC-366	0.85
RERF-LC-KJ	0.548
EMC-BAC-2	0.371

same assay, conditions: first compound 0.8 µM

Cell Line	relative viability
NCI-H358	0.661
NCI-H322M	0.509
LC-2-ad	0.801
HCC-827	0.807
CAL-12T	0.612
HCC-15	0.481
HOP-62	0.742
NCI-H460	0.622
LU99A	0.309
NCI-H2085	0.649
A-427	0.429
NCI-H520	0.234
NCI-H838	0.341
NCI-H596	0.669
NCI-H3122	0.776
BEN	0.206

Cell Line	relative viability
201T	0.726
NCI-H1993	0.541
NCI-H1355	0.324
NCI-H2405	0.582
NCI-H1437	0.821
NCI-H661	0.768
COR-L 105	0.587
H3255	0.594
NCI-H2347	0.48
NCI-H1975	0.785
NCI-H1563	0.765
NCI-H1915	0.663
NCI-H2087	0.469
HCC-366	0.863
RERF-LC-KJ	0.571
EMC-BAC-2	0.418

same assay, conditions: first compound 2.53 µM

Cell Line	relative viability
NCI-H358	0.82
NCI-H322M	0.601
LC-2-ad	0.92
HCC-827	0.786
CAL-12T	0.805
HCC-15	0.773
HOP-62	0.857
NCI-H460	0.622
LU99A	0.317
NCI-H2085	0.852
A-427	0.574
NCI-H520	0.292
NCI-H838	0.325
NCI-H1792	0.699
NCI-H596	0.762
NCI-H3122	0.92
BEN	0.285

Cell Line	relative viability
201T	0.765
NCI-H1993	0.531
NCI-H1355	0.441
NCI-H2405	0.696
NCI-H1437	0.875
NCI-H661	0.764
COR-L 105	0.641
H3255	0.612
NCI-H2347	0.293
NCI-H1975	0.71
NCI-H1563	0.746
NCI-H1915	0.625
NCI-H2087	0.674
HCC-366	0.865
RERF-LC-KJ	0.575
EMC-BAC-2	0.379

same assay, conditions: first compound 8 µM

Cell Line	relative viability
NCI-H358	0.431
NCI-H322M	0.48
LC-2-ad	0.819
HCC-827	0.726
CAL-12T	0.655
HCC-15	0.578
HOP-62	0.866
NCI-H460	0.423
LU99A	0.228
NCI-H2085	0.475
A-427	0.338
NCI-H520	0.233
NCI-H838	0.373
NCI-H1792	0.714
NCI-H596	0.563
NCI-H3122	0.729
BEN	0.309

Cell Line	relative viability
201T	0.685
NCI-H1993	0.543
NCI-H1355	0.345
NCI-H2405	0.641
NCI-H1437	0.995
NCI-H661	0.576
COR-L 105	0.404
H3255	0.638
NCI-H2347	0.466
NCI-H1975	0.416
NCI-H1563	0.696
NCI-H1915	0.628
NCI-H2087	0.525
HCC-366	0.884
RERF-LC-KJ	0.398
EMC-BAC-2	0.375

compound: CCOC(=O)CCNc1cc(N2CCc3ccccc3CC2)nc(-c2ccccn2)n1 [GSK-J4] + CS(=O)(=O)CCNCc1ccc(-c2ccc3ncnc(Nc4ccc(OCc5cccc(F)c5)c(Cl)c4)c3c2)o1 [Lapatinib] (partner 2 µM); test: as above; settings: first compound 0.5 µM
Method in brief: as §1

Cell Line	relative viability
NCI-H358	0.452
NCI-H322M	0.533
LC-2-ad	1.04
HCC-827	0.197
CAL-12T	0.586
HCC-15	0.827
HOP-62	0.701
NCI-H460	1.05
LU99A	0.992
NCI-H2085	0.696
A-427	1.05
NCI-H520	0.846
NCI-H838	1.25
NCI-H1792	0.932
NCI-H596	1.01
NCI-H3122	0.966
BEN	0.657

Cell Line	relative viability
201T	0.988
NCI-H1993	0.837
NCI-H1355	0.946
NCI-H2405	1.15
NCI-H1437	0.851
NCI-H661	0.483
COR-L 105	0.398
H3255	0.238
NCI-H2347	0.841
NCI-H1975	0.873
NCI-H1563	0.821
NCI-H1915	0.963
NCI-H2087	0.794
HCC-366	0.969
RERF-LC-KJ	0.843
EMC-BAC-2	0.925

same assay, conditions: first compound 1.581 µM

Cell Line	relative viability
NCI-H358	0.414
NCI-H322M	0.623
LC-2-ad	0.743
HCC-827	0.229
CAL-12T	0.489
HCC-15	0.436
HOP-62	0.689
NCI-H460	0.924
LU99A	0.79
NCI-H2085	0.679
NCI-H520	0.515
NCI-H838	0.748
NCI-H1792	0.705
NCI-H596	1.02
NCI-H3122	0.989
BEN	0.622

Cell Line	relative viability
201T	1.08
NCI-H1993	0.878
NCI-H1355	0.875
NCI-H2405	1.03
NCI-H1437	0.693
NCI-H661	0.472
COR-L 105	0.317
H3255	0.255
NCI-H2347	0.573
NCI-H1975	0.971
NCI-H1563	0.621
NCI-H1915	0.802
NCI-H2087	0.514
HCC-366	0.786
RERF-LC-KJ	0.802
EMC-BAC-2	0.928

same assay, conditions: first compound 5 µM

Cell Line	relative viability
NCI-H358	0.434
NCI-H322M	0.842
LC-2-ad	0.809
HCC-827	0.207
CAL-12T	0.778
HCC-15	0.724
HOP-62	0.846
NCI-H460	0.809
LU99A	0.842
NCI-H2085	0.77
A-427	0.913
NCI-H520	0.939
NCI-H1792	0.835
NCI-H596	1
NCI-H3122	1
201T	0.983
NCI-H1993	0.927
NCI-H1355	0.944
NCI-H1437	0.713
NCI-H661	0.405
COR-L 105	0.35
H3255	0.271
NCI-H2347	0.753
NCI-H1563	0.784
NCI-H1915	0.83
RERF-LC-KJ	0.749
EMC-BAC-2	0.802

same assay, conditions: first compound 15.81 µM

Cell Line	relative viability
NCI-H358	0.456
NCI-H322M	0.514
LC-2-ad	0.904
HCC-827	0.212
CAL-12T	0.55
HCC-15	0.754
HOP-62	1.02
NCI-H460	0.955
LU99A	0.921
NCI-H2085	0.615
A-427	0.976
NCI-H520	0.74
NCI-H838	0.938
NCI-H1792	0.782
NCI-H596	0.866
NCI-H3122	0.964
BEN	0.764

Cell Line	relative viability
201T	1.04
NCI-H1993	0.808
NCI-H1355	0.916
NCI-H2405	1.09
NCI-H1437	0.727
NCI-H661	0.349
COR-L 105	0.319
H3255	0.206
NCI-H2347	0.963
NCI-H1975	0.929
NCI-H1563	0.834
NCI-H1915	0.941
NCI-H2087	1.01
HCC-366	0.937
RERF-LC-KJ	0.788
EMC-BAC-2	0.824

same assay, conditions: first compound 50 µM

Cell Line	relative viability
NCI-H358	0.367
NCI-H322M	0.528
LC-2-ad	0.664
HCC-827	0.16
CAL-12T	0.391
HCC-15	0.644
HOP-62	0.86
NCI-H460	0.364
LU99A	0.607
NCI-H2085	0.397
A-427	0.847
NCI-H520	0.658
NCI-H838	0.858
NCI-H1792	0.692
NCI-H596	0.916
NCI-H3122	0.911
BEN	0.635

Cell Line	relative viability
201T	0.992
NCI-H1993	0.671
NCI-H1355	0.919
NCI-H2405	1.17
NCI-H1437	0.17
NCI-H661	0.386
COR-L 105	0.35
H3255	0.493
NCI-H2347	0.664
NCI-H1975	1.19
NCI-H1563	0.892
NCI-H1915	0.961
NCI-H2087	0.57
HCC-366	0.602
RERF-LC-KJ	0.734
EMC-BAC-2	0.806
